Source: US4154967A, “Process for preparation of phenols” (Mitsui Petrochemical Industries, Ltd., priority 1976, dated 1979)

Experiment: physchem
Conditions: ethanol-water

pKa	Compound
6.3	N#Cc1cccc(S)c1 [meta-cyanophenyl mercaptan]
5.9	O=[N+]([O-])c1cccc(S)c1 [meta-nitrophenyl mercaptan]
5.6	CS(=O)(=O)c1ccc(S)cc1 [para-methylsulfonylphenyl mercaptan]
6.2	Sc1ccc(Cl)c(Cl)c1 [3,4-dichlorophenyl mercaptan]
6	FC(F)(F)c1ccc(Cl)c(S)c1 [2-chloro-5-trifluoromethylphenyl mercaptan]
6.8	Sc1cccc(I)c1 [meta-iodophenyl mercaptan]
5.9	O=S(=O)(O)c1cccc(S)c1 [meta-mercaptobenzenesulfonic acid]
6.8	Fc1cccc(S)c1 [meta-fluorophenyl mercaptan]
6.7	Sc1cccc(Cl)c1 [meta-chlorophenyl mercaptan]
6.3	O=C(S)c1ccccc1 [thiobenzoic acid]
5.8	Sc1cc(Cl)cc(Cl)c1 [3,5-dichlorophenyl mercaptan]
6	N#Cc1ccc(S)cc1 [para-cyanophenyl mercaptan]
6.9	Sc1ccc(I)cc1 [para-iodophenyl mercaptan]
5.9	O=C(O)c1ccc(S)cc1 [para-carboxyphenyl mercaptan]
7.5	Fc1ccc(S)cc1 [para-fluorophenyl mercaptan]
7	Sc1ccc(Br)cc1 [para-bromophenyl mercaptan]
6.8	Sc1cccc(Br)c1 [meta-bromophenyl mercaptan]
6.9	CC(=O)c1cccc(S)c1 [meta-acetyl phenyl mercaptan]
5.7	O=S(=O)(O)c1ccc(S)cc1 [para-mercaptobenzenesulfonic acid]
5.9	CC(=O)c1ccc(S)cc1 [para-acetyl phenyl mercaptan]
5.9	CS(=O)(=O)c1cccc(S)c1 [meta-methylsulfonylphenyl mercaptan]
6.2	FC(F)(F)c1cc(S)ccc1Cl [3-trifluoromethyl-4-chlorophenyl mercaptan]

Compound	pKa
O=[N+]([O-])c1ccc(S)c([N+](=O)[O-])c1 [2,4-dinitrophenyl mercaptan]	4
Sc1cc(Cl)c(Cl)cc1Cl [2,4,5-trichlorophenyl mercaptan]	4.2
Sc1c(Cl)c(Cl)c(Cl)c(Cl)c1Cl [pentachlorophenyl mercaptan]	3.5
Fc1c(F)c(F)c(S)c(F)c1F [pentafluorophenyl mercaptan]	2.7
O=C(O)c1ccccc1S [orthocarboxyphenyl mercaptan]	5.6
Sc1ccc(Cl)cc1 [para-chlorophenyl mercaptan]	7
